Read-outs that look alike come from different tables or passages of the source.

In series [1] the test system is human UM 92-1 cells. Briefly: Crystal violet proliferation assay in human UM 92-1 cells. The class given is cell-based. The following applies: for IC50: 48 h. The procedure: Then, actions on cell proliferation were examined by crystal violet staining (Figure 6).
(§1) HREC and human 92-1 cell (seeded 4 × 10^3 and grown for 24 h at optimum culture conditions) proliferation was measured using crystal violet staining after treatment in 96-well plates with the indicated concentrations of chemicals for an additional 48 h. Control cells received an equal volume of vehicle (DMSO). At the end of the treatment, each well was washed with phosphate-buffered saline (PBS). Following this, the cells were fixed (in 4% paraformaldehyde) and stained with crystal violet solution (0.5% in 20% methanol for HREC or 1% aqueous solution for 92-1 cells). Subsequently, the plate was washed with water and left to dry. Crystal violet staining was evaluated by measuring the absorbance at 570 nm or 590 nm, after crystal violet extraction with 10% acetic acid (at room temperature for 10 min), with a microplate reader with the plate reader (Synergy 2-BioTek). For quantification, each assay was carried out in triplicate.

The subject of series [2] is HREC stimulated with VEGF-A. Briefly: Tube formation assay (Matrigel) in HREC stimulated with VEGF-A. Conditions: 24 h; for effect on VEGF-A-stimulated tube formation in HREC: 5 μM. The class given is cell-based, human. The method, then: To further explore effects on angiogenesis, tube formation assays with HREC were evaluated. Following seeding onto basement membranelike Matrigel and stimulation for 24 h with VEGF-A (80 ng/mL), HREC organized into networks of tubular structures mimicking capillary formation in neoangiogenesis (Figure 4A).
The tube formation assay was analyzed in vitro in BD Matrigel, following the manufacturer’s instructions (BD, Bedford). In brief, 96-well plates were coated with 50 μL of Matrigel and allowed to solidify at 37 °C for 2 h. HREC were seeded at 1.5 × 10^4 cells/well in 100 μL of medium with (±)-1, (+)-1, or (−)-1 in the presence or absence of VEGF-A (80 ng/mL), AC927, and PTZ. After […] of incubation, tubelike structures were photographed at 10× magnification using an inverted microscope (Leica DM IRB) equipped with a CCD camera. Tube formations were quantified with ImageJ software (NIH, Bethesda, MD).

Series [3] has as its system HREC stimulated with VEGF-A. Briefly: Wound healing assay (cell motility) in HREC stimulated by VEGF-A. In kind it is cell-based, human. The following applies: 48 h; for effect of AC927 cotreatment on the compound's inhibition of VEGF-A-mediated HREC motility: 5 μM compound + 2 μM AC927, 80 ng/mL VEGF-A; for effect of PTZ cotreatment on the compound's inhibition of VEGF-A-mediated HREC motility: 5 μM compound + 2 μM PTZ. The method, then: Unregulated stimulation of endothelial cell motility by VEGF-A underlies pathological angiogenesis.[41] Therefore, the effects of (±)-1, (+)-1, and (−)-1 on HREC motility stimulated by VEGF-A (80 ng/mL) were evaluated with the wound healing assays (Figures 3 and S3–S5). VEGF-A promoted HREC migration compared to untreated controls, inducing complete wound closures at 24 h (Figures S3–S5). […] Cotreatments with both AC927 and PTZ reduced (±)-1 and (+)-1 abilities to inhibit VEGF-A-mediated wound healing (Figure 3A,B). […] The representative images of HREC treated with VEGF-A and three prodrug derivatives after the scratch wound are shown in the Supporting Information (Figures S2–S4A).
HREC and 92-1 cells (2.5 × 10^5 cells/well) were seeded into 24 well plates and grown to confluency. Confluent cell monolayers were scratched with a p200 pipet tip to create 1 mm wide wounds. After washing (three times) with PBS to remove cell debris, wounded monolayers were incubated for 48 h (37 °C) in the complete medium in the presence of the indicated treatments. HREC were treated for 48 h in the presence of (±)-1, (+)-1, or (−)-1 with or without VEGF-A (80 ng/mL), AC927, and PTZ. 92-1 cells were treated for 48 h in the presence of (±)-1, (+)-1, or (−)-1. Wound closure was monitored by photographs at 40X using a phase-contrast microscope in each culture condition and at each time point (0, 24, and 48 h for HREC and 0, 6, 24, 30, and 48 h for 92-1 cells). The numbers of cells toward the wounds were counted using ImageJ software (ImageJ 1.50e, National Institutes of Health, NIH, Bethesda, MD) and were quantified by measuring the distance traveled over time by both cell fronts into the wound area.

Series [4] can be described thus: Enzymatic stability (kinetics of enzymatic hydrolysis) in human plasma. The following applies: human plasma (80%), 37 °C; for half-life at 3.8 µM: pH 7.4, read-out: t1/2, enzymatic stability (converted). In kind it is in vitro ADME. The method, then:
(§2) Enzymatic stability studies in rat and human plasma were performed for both the racemate and its enantiomers (Table 1). […] Considering the high stability of (±)-1 and its enantiomers in simulated physiological fluids and human plasma, these compounds could reach the target site without undergoing esterase metabolism.
(§3) Human plasma was purchased from 3H Biomedical (Uppsala, Sweden, Europe). Plasma aliquots (4 mL) were diluted with 0.02 M PBS (pH 7.4) to obtain a final volume of 5 mL containing 80% plasma. Studies were performed at 37 ± 0.5 °C using a shaking bath. Each experiment was started by adding a 10^–4 M drug stock solution (200 μL) to the preheated plasma. Hundred microliters of the thermostated medium was taken at various times, treated with cold methanol (500 μL) to precipitate plasma proteins, and centrifugated (5 min at 5000g). The supernatant was analyzed by HPLC to quantify the amount of the residual intact compound.

A short description of series [5]: Enzymatic stability (kinetics of enzymatic hydrolysis) in rat plasma. In kind it is in vitro ADME. Conditions: for half-life at 3.8 µM: plasma (80%), pH 7.4, read-out: t1/2, enzymatic stability (converted). The procedure:
as §2, §3

Series [6] has as its system HREC stimulated with VEGF-A. In words: Crystal violet proliferation assay in HREC with or without VEGF-A. The following applies: 24 h; for effect of coincubation with AC927 on the compound's anti-VEGF-A activity on HREC proliferation: 5 μM compound + 2 μM AC927 (σ2 antagonist); for effect of coincubation with AC927 on the compound's anti-VEGF-A activity on HREC proliferation / effect of coincubation with PTZ on the compound's anti-VEGF-A activity on HREC proliferation / effect on VEGF-A-mediated HREC proliferation: 80 ng/mL VEGF-A; for effect of coincubation with PTZ on the compound's anti-VEGF-A activity on HREC proliferation: 5 μM compound + 2 μM PTZ (σ1 agonist); for effect on VEGF-A-mediated HREC proliferation / effect on HREC proliferation under basal conditions: 5 μM; for effect on HREC proliferation under basal conditions: no VEGF-A. The class given is cell-based, human. The method, then:
As expected, VEGF-A exerted a proangiogenic effect by increasing cell proliferation by about 45% (at 24 h) with respect to the untreated control (Figure 2).
as §1, with “Control” for “HREC and human 92-1 cell (seeded 4 × 10^3 and grown for 24 h at optimum culture conditions) proliferation was measured using crystal violet staining after treatment in 96-well plates with the indicated concentrations of chemicals for an additional 48 h. Control”

Where [7] appears, read: Homo sapiens, read-out: IC50 on human 92-1 cells (proliferation, crystal violet), 48 h.
Setting [8] is: read-out: IC50 on human 92-1 cells (proliferation, crystal violet).

With `CCCC(CCC)C(=O)O[C@@H](CCCN1CCC(O)(c2ccc(Cl)cc2)CC1)c1ccc(F)cc1` [(−)-1], in series [1] (setting [7]), the IC50 is 4.45 µM. The IC50 in series [1] (setting [8]) came to 4.4 ± 0.68 µM. Besides, the “effect on VEGF-A-stimulated tube formation in HREC” value (“effect … in HREC” for short) in series [2] (80 ng/mL VEGF-A) is reported as “blocked”. For the same compound, the “effect of AC927 cotreatment on the compound's inhibition of VEGF-A-mediated HREC motility” value in series [3] was “prevented, in part”. Also, the “effect on VEGF-A-mediated HREC migration (wound healing)” value in series [3] (5 μM, 80 ng/mL VEGF-A) is listed as “highest reduction”. In series [4], the “Kobs, enzymatic stability” value is given as 0.01 ± 0.002 h^–1 and the half-life at 3.8 µM is 70.3 ± 1.5 h. Besides, in series [5], the “Kobs, enzymatic stability” value was found to be 2.15 ± 0.03 h^–1 and the half-life at 3.8 µM was 0.322 ± 0.01 h. In addition, in series [6], the “effect of coincubation with AC927 on the compound's anti-VEGF-A activity on HREC proliferation” value was “did not alter”, the “effect of coincubation with PTZ on the compound's anti-VEGF-A activity on HREC proliferation” value (“effect of coincubation with PTZ” for short) was “did not alter”, the “effect on VEGF-A-mediated HREC proliferation” value is “completely prevented” and the “effect on HREC proliferation under basal conditions” value (from here on “effect on HREC proliferation”) is on record as “did not induce significant changes”.
In the case of `CCCC(CCC)C(=O)O[C@H](CCCN1CCC(O)(c2ccc(Cl)cc2)CC1)c1ccc(F)cc1` [(+)-1], the IC50 in series [1] (setting [7]) amounted to 4.95 µM. The IC50 in series [1] (setting [8]) came out at 4.9 ± 0.58 µM. The “effect … in HREC” value in series [2] (80 ng/mL VEGF-A) was “blocked”. Further, in series [3], the “effect of AC927 cotreatment on the compound's inhibition of VEGF-A-mediated HREC motility” value is “reduced”. For the same compound, the “effect of PTZ cotreatment on the compound's inhibition of VEGF-A-mediated HREC motility” value in series [3] (80 ng/mL VEGF-A) was “significantly and completely blocked”. Besides, in series [4], the “Kobs, enzymatic stability” value is given as 0.012 ± 0.001 h^–1 and the half-life at 3.8 µM is 58.2 ± 1.2 h. In addition, in series [5], the “Kobs, enzymatic stability” value was determined as 1.60 ± 0.005 h^–1 and the half-life at 3.8 µM is 0.434 ± 0.002 h. Also, in series [6], the “effect of coincubation with AC927 on the compound's anti-VEGF-A activity on HREC proliferation” value was “did not alter”, the “effect of coincubation with PTZ” value was “did not alter”, the “effect on VEGF-A-mediated HREC proliferation” value is reported as “completely prevented” and the “effect on HREC proliferation” value is listed as “did not induce significant changes”.
Regarding `CCCC(CCC)C(=O)OC(CCCN1CCC(O)(c2ccc(Cl)cc2)CC1)c1ccc(F)cc1` (racemic) [(±)-1], the “effect of PTZ, AC927 or their combination on the antiproliferative effects of the compound in 92-1 cells” value in series [1] (5 μM compound, PTZ 2 μM, AC927 2 μM) is reported as “did not perturb”. Also, the IC50 in series [1] (setting [7]) is 5.46 µM. Also, the “antiproliferative effect with respect to VPA alone” value in series [1] (UM 92-1 cells) was “about 400 fold”. Besides, the IC50 in series [1] (setting [8]) is 5.5 ± 0.74 µM. Moreover, the “effect of AC927 on the compound's action on VEGF-A-stimulated tube formation” value in series [2] (5 μM compound + 2 μM AC927, 80 ng/mL VEGF-A) was “partially and equally blocked”. For the same compound, in series [2] (5 μM compound + 2 μM PTZ, 80 ng/mL VEGF-A), the “effect of PTZ on the compound's action on VEGF-A-stimulated tube formation” value is “partially and equally blocked”. For the same compound, the “effect … in HREC” value in series [2] (80 ng/mL VEGF-A) is on record as “blocked”. Besides, the “effect of AC927 cotreatment on the compound's inhibition of VEGF-A-mediated HREC motility” value in series [3] was “significantly, but partially, opposed”. Besides, in series [3] (80 ng/mL VEGF-A), the “effect of PTZ cotreatment on the compound's inhibition of VEGF-A-mediated HREC motility” value is reported as “significantly, but partially, opposed”. In addition, in series [4], the “Kobs, enzymatic stability” value is reported as 0.011 ± 0.006 h^–1 and the half-life at 3.8 µM is 60.5 ± 0.6 h. In series [5], the “Kobs, enzymatic stability” value was found to be 2.96 ± 0.01 h^–1 and the half-life at 3.8 µM is 0.234 ± 0.003 h. Moreover, in series [6], the “effect of coincubation with PTZ” value was “partially counteracted”, the “effect on VEGF-A-mediated HREC proliferation” value is on record as “completely prevented” and the “effect on HREC proliferation” value is listed as “did not induce significant changes”.

For the origin of these results see PMC8474110 (Journal of Medicinal Chemistry, 2021).
